Each structure is given as a SMILES string.

Our source for the IC50 values is ChEMBL document CHEMBL6074645, “Structure-based virtual screening discovers novel PKMYT1 inhibitors” (RSC Med Chem, 2024).

The first assay has as its target T1, Membrane-associated tyrosine- and threonine-specific cdc2-inhibitory kinase (Homo sapiens, UniProt Q99640).
T1 sequence (Q99640 whole entry): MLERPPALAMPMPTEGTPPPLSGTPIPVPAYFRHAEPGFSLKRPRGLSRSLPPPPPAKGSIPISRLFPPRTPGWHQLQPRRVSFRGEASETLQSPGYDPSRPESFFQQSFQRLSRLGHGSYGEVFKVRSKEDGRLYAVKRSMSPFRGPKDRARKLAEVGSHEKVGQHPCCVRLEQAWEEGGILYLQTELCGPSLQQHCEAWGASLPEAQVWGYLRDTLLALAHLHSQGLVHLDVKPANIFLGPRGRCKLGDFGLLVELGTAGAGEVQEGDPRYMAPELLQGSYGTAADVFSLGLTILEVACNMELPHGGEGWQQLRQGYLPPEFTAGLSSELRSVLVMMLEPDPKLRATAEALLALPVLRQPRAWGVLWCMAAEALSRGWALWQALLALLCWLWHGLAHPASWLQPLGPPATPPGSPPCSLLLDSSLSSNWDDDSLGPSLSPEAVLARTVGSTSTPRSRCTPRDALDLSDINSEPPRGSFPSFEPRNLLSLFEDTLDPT
In words: Displacement of fluorescently labeled tracer from human PKMYT1 (75 to 362 residues) expressed in Escherichia coli BL21 (DE3) by fluorescence anisotropy based kinase assay.
Molecule `CCN(CC)CCOc1ccc(Nc2ncc3cc(-c4c(Cl)cccc4Cl)c(=O)n(C)c3n2)cc1` [PD-0166285] displayed a half-inhibitory concentration (IC50) of 72 nM.

The target of a further assay is T1, Membrane-associated tyrosine- and threonine-specific cdc2-inhibitory kinase. In words: Inhibition of PKMYT1 (unknown origin) incubated for 1 hr by LanthaScreen Eu kinase binding method.
Take `COc1ccc(-c2oc3c(CC=C(C)C)c(O)cc(O)c3c(=O)c2O)cc1` [ICARITIN]: the IC50 amounted to 51000 nM. In the case of `O=C(O[C@@H]1Cc2c(O)cc(O)cc2O[C@@H]1c1cc(O)c(O)c(O)c1)c1cc(O)c(O)c(O)c1` [EPIGALOCATECHIN GALLATE], the IC50 was 137 nM. Consider `O=c1c(-c2ccc(O)cc2)coc2cc(O)cc(O)c12` [GENISTEIN], for which the IC50 is 78000 nM. The molecule `O=C(O[C@@H]1Cc2c(O)cc(O)cc2O[C@H]1c1cc(O)c(O)c(O)c1)c1cc(O)c(O)c(O)c1` [GALLOCATECHIN GALLATE] came in with an IC50 of 159 nM. For `O=c1cc(-c2ccc(O)c(O)c2)oc2cc(O)cc(O)c12` [LUTEOLIN], the IC50 was 1500 nM.
